Tests used:
ESBL E. coli = experiment: Chequerboard assay (OD600, MIC and FIC) of 4-mer combinations against ESBL E. coli; type: cell-based; details: for MIC Monotherapy (X): drug alone; for MIC combination therapy (Y): drug in 4-mer ceftazidime, doxycycline; for Ratio Y:X: MIC combination / MIC monotherapy
From the text: (§1) Synergy is not predictable or expected when two or more actives are used in combination. […] One of the ways to assess whether synergy has been observed is to use the “chequerboard” technique. This is a well-accepted method that leads to the generation of a value called the fractional inhibitory concentration index (FICI). Orhan et al., J. Clin. Microbiol. 2005, 43(1):140 describes the chequerboard method and analysis in the paragraph bridging pages 140-141, and explains that the FICI value is a ratio of the sum of the MIC (Minimum Inhibitory Concentration) level of each individual component alone and in the mixture.
FICI or fractional inhibitory concentration index is the sum of the FICs of each antimicrobial when used in combination. The FIC or fractional inhibitory concentration of an antimicrobial in a combination, is the MIC of the antimicrobial in the combination divided by the MIC of the same antimicrobial when used alone. Minimum inhibitory concentrations are defined in the art as the lowest concentration of an antimicrobial that will inhibit the visible growth of a microorganism after overnight incubation.
There has in fact been very little previous work in this field. […] This method is applicable for any combination with “n” antimicrobial agents.
In this method, two antibiotics were “fixed” as part of a backbone whilst the two other antibiotics were varied over a doubling concentration scale beginning at the MIC (×1) for the effective dose in monotherapy against the organism being tested. The ΣFIC was then calculated as shown below.
The ΣFIC was divided by “0.5/n” where n=number of antimicrobials in the combination to provide FIC. The inventors opted for this expression because it more closely aligns with the 2-mer synergy levels. The same FIC scale as used for 2-mers was applied: synergy is observed when FIC is <0.5. An “Additive” effect is observed when FIC is 0.5 to <1. Indifference is observed when FIC is 1 to <2. Antagonism is observed when FIC is 2 to 4.
Synergy can be expressed as “ΣFIC≤0.25×n”.
The above method was used in the Examples herein.
The antimicrobial agents were sourced from commercially available sources. They were prepared by being weighed and dissolved in water, PBS, DMSO or acidified water to a final concentration from 1-10 mg/mL. Antimicrobial solutions were diluted to 10× highest concentration used in the experiment and subsequently diluted 2x over a series not exceeding 11 serial dilutions. These left the operator with a maximum of 12 different, descending concentrations of the chosen antimicrobials.
The bacteria were obtained from Ninewells Hospital and Medical School in Dundee, Scotland. They were obtained as patient strains and characterised by Vitek 2 screening. To prepare for the Examples below, the bacteria were grown overnight in Mueller Hinton Cation adjusted broth or until confluent in media with or without supplements. The bacteria were measured for OD600 and readings of <0.25 were returned to the incubator.
All data herein was produced using the same chequerboard assay.
20 uL of antibiotic A (backbone) and 20 uL of antibiotic B (backbone), at a single dilution, were pipetted into all wells of a 96-well plate to be used.
20 uL of the lowest concentration of antibiotic C (first variable) was pipetted into column 1 of the 96-well plate. The second concentration (2-fold more concentrate) was pipetted into column 2. This process was repeated until all concentrations of antibiotic […] to be used were complete.
20 uL of the lowest concentration of antibiotic D (second variable) were pipetted into row A of the 96-well plate. The second concentration (2-fold more concentrate) was pipetted into row B. This process was repeated until all concentrations of antibiotic […] to be used were complete.
120 uL of sterile media (BHI/MHB2) was added.
20 ul of prepared bacterial culture was added.
Plates were sealed with lids and left to incubate for 16 hours, overnight.

[1] = test system: KPC (Klebsiella pneumoniae carbapenemase) producing K. pneumoniae; experiment: Chequerboard assay (percentage kill from OD600, MIC and FIC) of 4-mer combination against KPC producing K. pneumoniae; type: cell-based; details: Example 4, backbone ceftazidime + colistin
From the text: as §1
FICI or fractional inhibitory concentration index is the sum of the FICs of each antimicrobial when used in combination. […]
In this method, two antibiotics were “fixed” as part of a backbone whilst the two other antibiotics were varied over a doubling concentration scale beginning at the MIC (×1) for the effective dose in monotherapy against the organism being tested. The ΣFIC was then calculated as shown below. […]
Synergy can be expressed as “ΣFIC≤0.25×n”. […]
The bacteria were obtained from Ninewells Hospital and Medical School in Dundee, Scotland. […] The bacteria were measured for OD600 and readings of <0.25 were returned to the incubator. […]

[2] = Example 1, backbone ceftazidime + doxycycline
[3] = Example 1, backbone colistin + ceftazidime
[4] = Example 2, backbone colistin + doxycycline
[5] = Example 3, backbone rifampicin + doxycycline
[6] = Example 1, backbone ceftazidime + doxycycline, colistin, rifampicin
[7] = Example 2, backbone colistin + doxycycline, colistin, levofloxacin
[8] = Example 3, backbone rifampicin + doxycycline, rifampicin, levofloxacin

| SMILES | MIC Monotherapy (X) (ESBL E. coli; [2]) | MIC Monotherapy (X) (ESBL E. coli; [3]) | MIC combination therapy (Y) (ESBL E. coli; Example 1, backbone colistin + ceftazidime, colistin, rifampicin) | MIC Monotherapy (X) (ESBL E. coli; [4]) | MIC Monotherapy (X) (ESBL E. coli; [5]) | MIC Monotherapy (X) ([1]; drug alone) | MIC combination therapy (Y) ([1]; drug in 4-mer ceftazidime, doxycycline, rifampicin, colistin) | MIC (ESBL E. coli; Escherichia coli, read-out: isolate resistant to ceftazidime at) | MIC combination therapy (Y) (ESBL E. coli; [6]) | MIC combination therapy (Y) (ESBL E. coli; [7]) | MIC combination therapy (Y) (ESBL E. coli; [8]) | Ratio Y:X (ESBL E. coli; [4]) | Ratio Y:X (ESBL E. coli; [5]) |
| --- | --- | --- | --- | --- | --- | --- | --- | --- | --- | --- | --- | --- | --- |
| C[C@H]1c2cccc(O)c2C(=O)C2=C(O)[C@]3(O)C(=O)C(C(N)=O)=C(O)[C@@H](N(C)C)[C@@H]3[C@@H](O)[C@@H]21 [Doxycycline] | 1 mg/L | 1 mg/L | 0.25 mg/L | 1 mg/L | 1 mg/L | 1 mg/L | 0.25 mg/L |  |  |  |  |  |  |
| CC(C)(O/N=C(\C(=O)N[C@@H]1C(=O)N2C(C(=O)[O-])=C(C[n+]3ccccc3)CS[C@H]12)c1csc(N)n1)C(=O)O [Ceftazidime] |  |  |  |  |  |  |  | ≥ 32 mg/L | 4 mg/L | 16 mg/L | 16 mg/L |  |  |
| C[C@H]1COc2c(N3CCN(C)CC3)c(F)cc3c(=O)c(C(=O)O)cn1c23 [Levofloxacin] |  |  |  | 8 mg/L | 8 mg/L |  |  |  |  | 0.25 mg/L | 0.25 mg/L | 0.03125 | 0.03125 |
| CO[C@H]1/C=C/O[C@@]2(C)Oc3c(C)c(O)c4c(O)c(c(/C=N/N5CCN(C)CC5)c(O)c4c3C2=O)NC(=O)/C(C)=C\C=C\[C@H](C)[C@H](O)[C@@H](C)[C@@H](O)[C@@H](C)[C@H](OC(C)=O)[C@@H]1C [Rifampicin] | 4 mg/L | 4 mg/L |  |  | 1 mg/L |  |  |  | 0.5 mg/L |  |  |  |  |
